Measured values published in ChEMBL document CHEMBL3045069, “Antifeedant activity of quinones from Ventilago madaraspatana” (2001).

Assays:
Format in all cases: functional
Spodoptera litura [1] = test: Antifeedant activity against Spodoptera litura in Ricinus communis leaves assessed as mean leaf area fed by dual choice leaf disc bioassay; parameters: concentration or dose not given beside the values
Spodoptera litura [2] = test: Antifeedant activity against Spodoptera litura in Ricinus communis leaves assessed as mean leaf area fed at 1 ug/cm'2 by dual choice leaf disc bioassay (reference value: 53 +/- 2.44 to 53.6 +/- 2.61 cm'2)
Spodoptera litura [3] = test: Antifeedant activity against Spodoptera litura in Ricinus communis leaves assessed as mean leaf area fed at 5 ug/cm'2 by dual choice leaf disc bioassay (reference value: 52.6 +/- 1.34 to 55.6 +/- 3.71 cm'2)
Spodoptera litura [4] = test: Antifeedant activity against Spodoptera litura in Ricinus communis leaves assessed as mean leaf area fed at 10 ug/cm'2 by dual choice leaf disc bioassay (reference value: 52.8 +/- 2.50 to 53.6 +/- 4.76 cm'2)
[5] = system: Henosepilachna vigintioctopunctata; test: Antifeedant activity against Henosepilachna vigintioctopunctata in Solanum nigrum leaves assessed as mean leaf area fed by dual choice leaf disk bioassay; parameters: concentration or dose not given beside the values
[6] = system: Henosepilachna vigintioctopunctata; test: Antifeedant activity against Henosepilachna vigintioctopunctata in Solanum nigrum leaves assessed as mean leaf area fed at 1 ug/cm'2 by dual choice leaf disk bioassay (reference value: 0.75 +/- 0.06 to 0.92 +/- 0.05 cm'2)
[7] = system: Henosepilachna vigintioctopunctata; test: Antifeedant activity against Henosepilachna vigintioctopunctata in Solanum nigrum leaves assessed as mean leaf area fed at 5 ug/cm'2 by dual choice leaf disk bioassay (reference value: 0.74 +/- 0.02 to 0.91 +/- 0.01 cm'2)
[8] = system: Henosepilachna vigintioctopunctata; test: Antifeedant activity against Henosepilachna vigintioctopunctata in Solanum nigrum leaves assessed as mean leaf area fed at 10 ug/cm'2 by dual choice leaf disk bioassay (reference value: 0.78 +/- 0.04 to 0.99 +/- 0.17 cm'2)

SMILES	Activity (Spodoptera litura [1]) [%]	Activity (Spodoptera litura [2]) [cm2]	Activity (Spodoptera litura [3]) [cm2]	Activity (Spodoptera litura [4]) [cm2]	Activity [5] [%]	Activity [6] [cm2]	Activity [7] [cm2]	Activity [8] [cm2]
C/C=C(\C)C(=O)O[C@H]1C[C@@H](OC(C)=O)[C@@]2(C(=O)OC)CO[C@H]3[C@@H](O)[C@@](C)([C@]45O[C@@]4(C)[C@H]4C[C@@H]5O[C@@H]5OC=C[C@@]54O)[C@H]4[C@]1(CO[C@]4(O)C(=O)OC)[C@@H]32 [AZADIRACTIN]	60	20.3	13.5	5	56	0.4	0.2	0.05
Cc1cc(O)c2c(c1)C(=O)c1cccc(O)c1C2=O [CHRYSOPHANOL]	20	40.4	24	13.6	26	0.61	0.43	0.25
Cc1cc(O)c2c(c1)C(=O)c1cc(O)cc(O)c1C2=O [EMODIN]	31	33.2	20.5	11	44	0.48	0.3	0.13
COc1cc(O)c2c(c1)C(=O)c1cc(C)cc(O)c1C2=O [PHYSCION]	30	33.4	21.6	11.3	34	0.52	0.32	0.15
COc1c2c(c(O)c3c1C(=O)c1coc(C)c1C3=O)OCO2 [VENTILONE B]	27	34.9	23	13	31	0.56	0.37	0.19
COc1c2c(c(O)c3c1C(=O)C1=C(C[C@H](C)O[C@@H]1C)C3=O)OCO2 [VENTILOQUINONE A]	40	25.2	19.8	7.2	47	0.46	0.28	0.07
COc1c2c(c(OC)c3c1C(=O)C1=C(C3=O)[C@@H](C)O[C@@H](C)C1)OCO2 [VENTILOQUINONE B]	29	33.8	22.5	11.6	32	0.54	0.34	0.17
COc1cc(OC)c2c(c1OC)C(=O)C1=C(C2=O)[C@@H](C)O[C@@H](C)C1 [VENTILOQUINONE E]	25	35.1	23.3	13.3	29	0.58	0.39	0.21
